Measurements from PubChem BioAssay AID1288 (Columbia University Molecular Screening Center, 2008).
Calls of active or inactive are those of the source. How the calls were made is not given here.

Experiment: E-selectin induction blockers, endothelial cells – imaging, retest plus dose response, cell count, confirmation (AID 1288);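 further: 0% = stimulated vehicle wells and 100% = unstimulated vehicle wells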
Conditions: human endothelial cells, TNFa-induced E-selectin, imaging; at 2 µM; hits give high values

| SMILES | inhibition |
| --- | --- |
| CCN(C(=O)COC(=O)c1cc(C)n(-c2ccc(F)cc2)c1C)C1CCS(=O)(=O)C1 (centres undefined) | 2.1% (inactive) |
| CCOC(=O)c1c(NC(=O)CSc2nnc(CNc3ccc(C)cc3C)o2)sc(C)c1C | 2.5% (inactive) |
| N#CC(C#N)=C/C(C#N)=C(/N)N1CCN(c2ccc(Cl)cc2)CC1 | 6.82% (inactive) |
| CC(C(=O)O)C1SC(=O)NC1=O (centres undefined) | 12.7% (inactive) |
| Cc1noc(C)c1S(=O)(=O)N1CCC(C(=O)N2CCN(Cc3ccc4c(c3)OCO4)CC2)CC1 | 7.72% (inactive) |
| COc1ccc(-c2cc(C)nc(SCc3cccc(C(=O)O)c3)n2)cc1 | 16.2% (inactive) |
| O=S1(=O)CCN(C(CCO)c2cccc(C(F)(F)F)c2)CC1 (centres undefined) | 4.23% (inactive) |
| CCCCCOC(=O)Cn1c(SCC(=O)Nc2ccccc2)nc2c1c(=O)[nH]c(=O)n2C | -1.58% (inactive) |
| Cn1nnnc1SCC(=O)Nc1cccc([N+](=O)[O-])c1 | 2.78% (inactive) |
| CCOC(=O)c1ccc(NC(=S)NCC(O)c2ccccc2)cc1 (centres undefined) | 4.17% (inactive) |
| C=CCc1cccc(/C=N/NC(=O)CCCNc2ccc(C)cc2)c1O | 11.2% (inactive) |
| Clc1ccc(Nc2ccc(-n3ccnc3)nn2)cc1Cl | 11.7% (inactive) |
| CCC(Sc1nc2c(c(=O)n1CC)SC(C)C2)C(=O)OC (centres undefined) | 6.81% (inactive) |
| C#CCN1C(=O)C(O)(CC(=O)c2cccc(OC)c2)c2ccccc21 (centres undefined) | 16% (inactive) |
| CCN(CC)S(=O)(=O)c1ccc2[nH]c(=O)cc(C(=O)Nc3cccc(C(C)=O)c3)c2c1 | 8.83% (inactive) |
| CCOC(=O)c1c(NC(=O)COC)sc2c1CCCC2 | 17.5% (inactive) |
| COc1cccc(N2CC(C(=O)Nc3nnc(SCC(=O)c4ccccc4)s3)CC2=O)c1 (centres undefined) | 9.31% (inactive) |
| O=C(COc1ccc([N+](=O)[O-])cc1Cl)NCCc1ccccc1 | -2.48% (inactive) |
| CC1CC(Nc2ccccc2)=CC(=O)O1 (centres undefined) | -4.3% (inactive) |
| COc1ccc2nc(SCc3nc(N)nc(Nc4ccccc4)n3)[nH]c2c1 | 6.2% (inactive) |
| Cc1ccccc1-n1ccnc1SCC(=O)O | 23% (inactive) |
| CCCn1nnc(NC(=O)c2cccc(OCC(C)C)c2)n1 | 27.2% (inactive) |
| O=c1ncn(-c2ccccc2F)c2ncccc12 | 1.5% (inactive) |
| O=C(Nc1ccccc1C(=O)N/N=C/c1ccco1)c1ccc(F)cc1 | 10.5% (inactive) |
| CCN(CC)S(=O)(=O)c1ccc(-c2nnc(SCC(=O)Nc3ccc(OC)cc3)o2)cc1 | 23.9% (inactive) |

| SMILES | inhibition |
| --- | --- |
| N/C(Cc1cccc2ccccc12)=N\OC(=O)c1ccc2c(c1)OCO2 | 6.4% (inactive) |
| O=C(CSc1nnc(CNc2ccc(F)cc2)o1)N1CCCc2ccccc21 | 2.29% (inactive) |
| CC(C)(C)NC(=O)NC(=O)CSc1ncn[nH]1 | 6.43% (inactive) |
| CCCCCCOC(=O)C1=C(C)NC(=O)NC1c1ccc(O)cc1 (centres undefined) | 13.9% (inactive) |
| Cc1nc2c(sc3nc4c(cc32)COC(C)(C)C4)c(=O)o1 | 6.35% (inactive) |
| Cc1cc2nc(-c3ccc(SCc4ccc(C#N)cc4)nc3)[nH]c2cc1C | 1.98% (inactive) |
| O=S(=O)(N1CCOCC1)N1CCN(c2ccccc2F)CC1 | -1.16% (inactive) |
| CC(=O)N[C@@H](Cc1c[nH]c2ccccc12)C(=O)OCC(=O)Nc1ccc(S(=O)(=O)N(C)C)cc1 | 7.84% (inactive) |
| CCc1ccc(CN(C)C(=O)c2cc(COc3c(F)cccc3F)on2)cc1 | 13% (inactive) |
| CCCC(=O)C1=C(O)C(C(=O)OC)C(C)(C)CC1=Nc1ccc(N)cc1 (centres undefined) | 10.6% (inactive) |
| COc1cc(C(=O)Nc2ccc3c(c2)C(=O)c2ccccc2C3=O)cc(OC)c1OC | 12.8% (inactive) |
| COCc1cc(C)nc(OCC(=O)N/N=C/c2ccc(-c3cc([N+](=O)[O-])ccc3C)o2)c1C#N | 19% (inactive) |
| C=CCNC(=S)NNC(=O)c1ccc(Br)cc1 | 38.3% (inactive) |
| O=c1[nH]cnc2cc(-c3ccccc3)sc12 | 7.67% (inactive) |
| CCc1cc[n+](CC(=O)Nc2ccc(Cl)cc2Cl)cc1 | 5.98% (inactive) |
| O=C(C1CCN(S(=O)(=O)c2cnc[nH]2)CC1)N1CCN(c2ncccn2)CC1 | 31.7% (inactive) |
| COc1ccccc1CCNC(=O)c1cnccn1 | 16.6% (inactive) |
| O=C(NC1CCCCC1)C(c1cccs1)N(C(=O)c1ccco1)c1ccc2c(c1)OCCO2 (centres undefined) | 8.94% (inactive) |
| Cc1cc(NC(=O)CSc2n[nH]c(N)n2)no1 | 14.1% (inactive) |
| COc1ccc(N2C(=O)CCC2(C#N)c2ccc(Br)cc2)cc1 (centres undefined) | -2.45% (inactive) |
| O=C(O)c1cc2nc(-c3ccc(F)cc3)cc(C(F)(F)F)n2n1 | 8.45% (inactive) |
| Cc1ccc(Cc2cnc(NC(=O)/C(C#N)=C/c3ccc(-c4ccccc4[N+](=O)[O-])o3)s2)cc1 | 5.26% (inactive) |
| CCS(=O)(=O)c1ccc2oc(Nc3ccc(C(C)C)cc3)nc2c1 | 4.39% (inactive) |
| CCC(=O)Nc1c(-c2ccc(OC)cc2)c(=O)c2ccccc2n1C | 6.09% (inactive) |
| COc1ccc(C(=O)C(CN2CCOCC2)c2ccccc2)cc1F (centres undefined) | 0.43% (inactive) |

| SMILES | inhibition |
| --- | --- |
| CCOc1ccc(OCC)c(NC(=O)CN2CCN(c3cccc(C)c3)CC2)c1 | -3.01% (inactive) |
| O=c1ccc2ccc(OCc3nnc(-c4ccccc4Br)o3)cc2o1 | 2.48% (inactive) |
| O=C(NCc1ccccc1)N1CCN(c2ccc(Cl)c(Cl)c2)CC1 | 15.4% (inactive) |
| O=c1c2c(n3nnnc3n1-c1ccccc1)-c1ccccc1CC21CCCC1 | -3.55% (inactive) |
| Cc1nc2c(ccc3nc(NC(=O)c4ccc5c(c4)OCCO5)sc32)s1 | 3.48% (inactive) |
| CCC(C(=O)OC)n1c(-c2ccccc2)nc2ccccc2c1=O (centres undefined) | 10.1% (inactive) |
| CC(C)CC(=O)n1sc(NC(=O)c2ccccc2)nc1=O | -4.08% (inactive) |
| Cc1cc(C)cc(NC(=S)NC2CC3CCCC(C2)N3C2CC2)c1 (centres undefined) | 0.55% (inactive) |
| O=S(=O)(Nc1ccccn1)c1ccc(Cl)c2ccccc12 | 9.42% (inactive) |
| CCc1ccc(CC2S/C(=C(\C#N)C(C)=O)NC2=O)cc1 (centres undefined) | 5.01% (inactive) |
| O=C1N(c2ccccc2)C2CS(=O)(=O)CC2N1c1ccc(Br)cc1 (centres undefined) | 10.8% (inactive) |
| O=S(=O)(/N=C(/Nc1ccccc1)c1ccccc1)c1cccs1 | 5.98% (inactive) |
| O=C(c1ccc(COCC(F)(F)F)o1)N1CCCCCC1 | 5.74% (inactive) |
| CCN1CCN(Cc2cc(OC)c(OC)cc2[N+](=O)[O-])CC1 | 12.6% (inactive) |
| COCCCNCCCCOc1ccc(OCc2ccccc2)cc1 | -0.12% (inactive) |
| Cc1cc(C(=O)Nc2nc3c(s2)CCCC3)no1 | 6.49% (inactive) |
| O=C(COc1ccc(-c2nnco2)cc1)NCc1ccccc1Cl | 10.1% (inactive) |
| C=CCn1c(SCC(=O)NC)nc2sc3c(c2c1=O)CCC3 | 4.27% (inactive) |
| COc1ccc(-n2c(COc3ccccc3)nnc2SCC(N)=O)cc1 | 42.3% (inactive) |
| COC(=O)c1cc2c(s1)CS(=O)C2 (centres undefined) | 14.6% (inactive) |
| O=C(CCl)N1N=C(c2ccco2)CC1c1cccs1 (centres undefined) | 26.9% (inactive) |
| O=c1cc(-c2ccc(F)cc2)oc2ccccc12 | 0.15% (inactive) |
| CCC(=O)N1CCc2cc(Br)cc(S(=O)(=O)NCc3ccco3)c21 | 0.76% (inactive) |
| CCC(C(=O)N1CCc2cc(OC)c(OC)cc2C1)c1ccccc1 (centres undefined) | -0.78% (inactive) |
| COCCCNC(=O)COc1ccc(S(=O)(=O)NCc2ccccc2)cc1Cl | 7.46% (inactive) |

| SMILES | inhibition |
| --- | --- |
| CC(=O)c1cccc(NS(=O)(=O)N2CCCCC2)c1 | -4.42% (inactive) |
| Cn1c(O)c(C(=N)COc2cccc(Cl)c2)c(=O)n(C)c1=O | 18.8% (inactive) |
| CCN(CC)CCNS(=O)(=O)c1ccc(/C=C/C(=O)O)cc1 | 13.4% (inactive) |
| CC1(C)CC(=O)C2=C(C1)NCN(Cc1ccc3c(c1)OCO3)C2 | 3.18% (inactive) |
| CCC(C)Nc1nc(OC(C(F)(F)F)C(F)(F)F)nc(OC(C(F)(F)F)C(F)(F)F)n1 (centres undefined) | 9.28% (inactive) |
| CCOC(=O)c1cnc2ccc(C)cc2c1Nc1ccc(N2CCOCC2)cc1 | 5.86% (inactive) |
| CC1(C)NC(=O)N(CC(O)COc2cc3ccccc3cc2C(=O)N2CCCCC2)C1=O (centres undefined) | 7% (inactive) |
| COc1ccc(C2C(C#N)=C(SCC(=O)Nc3ccc(C)cc3)NC3=C2C(=O)CC(C)(C)C3)cc1 (centres undefined) | 4.4% (inactive) |
| COc1cccc(C(C(=O)NC(C)(C)C)N(C(=O)CCC(=O)Nc2cc(C)on2)C2CC2)c1OC (centres undefined) | 2.4% (inactive) |
| CCC(CC)C(=O)c1c[nH]c(C(=O)NCCCN2CCOCC2)c1 | 2.64% (inactive) |
| CCCCCC1NC(=O)NC1CCCCCC(=O)O (centres undefined) | 0.1% (inactive) |
| O=C(NCN1C(=O)C2C3C=CC(C3)C2C1=O)Nc1nncs1 (centres undefined) | 1.86% (inactive) |
| Cc1ccc2nc(-c3cccc(NC(=O)c4ccc5c(c4)OCCO5)c3)oc2c1 | 4.99% (inactive) |
| CCCSc1nc(C)c(-c2csc(C(C#N)=C3CCCC3)n2)cc1C#N | 8.04% (inactive) |
| Cc1ccc2c(c1)C(c1ccc(F)cc1)N(C(=O)c1cc3ccccc3oc1=O)CC(=O)N2 (centres undefined) | -3.89% (inactive) |
| COc1ccc(-n2c(SCC(=O)NCc3ccco3)nc3c([nH]c4ccccc43)c2=O)cc1 | 1.34% (inactive) |
| CCOC(=O)c1ccc(Nc2cc(C)nc(N3CCOCC3)n2)cc1 | 5.21% (inactive) |
| CCN1CCN(Cc2ccc(C)cc2)CC1 | 6.18% (inactive) |
| COc1ccc2c(c1)C1CC(C)(NC(=O)C1S(=O)(=O)c1ccc(F)cc1)O2 (centres undefined) | 28.9% (inactive) |
| N#Cc1ccsc1NC(=O)COC(=O)c1ccc2ccccc2c1 | 5.46% (inactive) |
| Cc1cc(NC(=O)CSc2nnc(Cc3ccccc3)n2C)no1 | 1.71% (inactive) |
| COc1ccc(C2CC(O)(C(C)(C)O)NO2)cc1 (centres undefined) | -4.94% (inactive) |
| O=C(N/N=C/c1ccc(C(F)(F)F)cc1)c1ccc(O)cc1 | 4.56% (inactive) |
| CC(C)C(c1nnnn1Cc1ccc2c(c1)OCO2)N1CCN(C)CC1 (centres undefined) | 6.53% (inactive) |
